Source: paper PMC12578646, “Prodrug florfenicol amine is activated by intrinsic resistance to target Mycobacterium abscessus” (Nature Microbiology, 2025)
In brackets after ≈: the same amount, converted by molar mass.

Tests used:
[1] = in vitro; set-up: HepG2 cytotoxicity, Cell-Titer Glo; settings: human, hepg2 cells; read-out: HepG2 Cytotoxicity IC50
Description: (§1) MPS and cytotoxicity of experimental compounds and PTC-targeting controls against HepG2 (liver hepatocellular carcinoma cells ATCC HB-8065) were performed as previously described without any modifications (see ref. [56] for MPS assay and ref. [78] for cytotoxicity assay). […] Results reported as mean ± s.d., n = 3 biological replicate. The requirement for FF-NH2 to be activated by Eis2 led us to hypothesize that it would lack the mitochondrial protein synthesis (MPS) inhibition liability of other PTC-targeting agents. We therefore profiled FF-NH2, FF-ac and other analogues for MPS inhibition activity.

[2] = test system: T1, M. abscessus WT; assay: microbe, parasite or virus in culture; set-up: broth microdilution MIC according to CLSI, read at 14 days; settings: Mycobacteroides abscessus, 336 h, read-out: WT MIC (µg/mL), day 14
T1 construct: ATCC 19977

[3] = test system: HepG2 mitochondrial protein synthesis; assay: cells; set-up: mitochondrial protein synthesis inhibition in HepG2 cells; settings: Homo sapiens, read-out: MPS IC50
Description: as §1, with “MPS inhibition and cytotoxicity assays MPS and” for “MPS and”

[4] = test system: NCC[C@H](O)C(=O)N[C@@H]1C[C@H](N)[C@@H](O[C@H]2O[C@H](CN)[C@@H](O)[C@H](O)[C@H]2O)[C@H](O)[C@H]1O[C@H]1O[C@H](CO)[C@@H](O)[C@H](N)[C@H]1O; assay: purified protein, by the assay type; set-up: Eis2 acetyltransferase kinetics, Michaelis-Menten fit for substrate
Excerpt: Consistent with previous findings, the aminoglycoside controls AMK and [compound left out] were also shown as substrates of Eis2 (ref. [47]), as well as CAM-NH2 and TAM-NH2. […] These findings highlight how specific chemical modifications to antibiotics govern substrate specificity and antimicrobial efficacy.

[5] = target: T2, Eis2 (Mycobacteroides abscessus, UniProt B1MKV6); assay: Michaelis-Menten acetylation kinetics with purified Eis2, DTNB free-thiol assay; type: biochemical
T2 construct: gene MAB_4532c; Eis2–pET30a, TEV cleavable N-terminal 6 histidine tag (removed)

[6] = target: T2, Eis2; assay: Michaelis-Menten acetylation kinetics with purified Eis2, DTNB free-thiol assay (control substrate); type: biochemical

T2 sequence (B1MKV6 entry or part of it): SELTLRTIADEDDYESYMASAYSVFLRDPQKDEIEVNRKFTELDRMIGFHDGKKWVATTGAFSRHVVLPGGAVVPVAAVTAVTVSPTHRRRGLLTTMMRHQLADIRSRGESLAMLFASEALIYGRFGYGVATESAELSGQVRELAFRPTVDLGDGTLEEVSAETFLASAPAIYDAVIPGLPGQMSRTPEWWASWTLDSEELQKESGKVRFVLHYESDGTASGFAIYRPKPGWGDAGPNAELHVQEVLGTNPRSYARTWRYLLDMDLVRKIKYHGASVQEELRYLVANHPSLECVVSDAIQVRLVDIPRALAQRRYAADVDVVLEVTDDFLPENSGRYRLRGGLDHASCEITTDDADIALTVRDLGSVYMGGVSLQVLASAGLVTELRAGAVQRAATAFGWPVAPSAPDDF

Row | Molecule | CC50 at 72 h [1] | MIC [2] | IC50 [3] | further results
1 | CSc1ccc2c(c1)N(CCC1CCCCN1C)c1ccccc1S2 (stereo not shown) [Thioridazine, thioridazine] | 6.6 ± 0.3 µM |  |  | 
2 | CC[C@H]1OC(=O)[C@H](C)[C@@H](O[C@H]2C[C@@](C)(OC)[C@@H](O)[C@H](C)O2)[C@H](C)[C@@H](O[C@@H]2O[C@H](C)C[C@H](N(C)C)[C@H]2O)[C@](C)(OC)C[C@@H](C)C(=O)[C@H](C)[C@@H](O)[C@]1(C)O [CLR] |  | 2 µg/mL (≈ 2.67 µM) |  | 
3 | CS(=O)(=O)c1ccc([C@@H](O)[C@H](N)CO)cc1 [TAM-NH2, thiamphenicol amine] | > 200 µM |  | > 100 µM | 
4 | CC(=O)NC[C@H]1CN(c2ccc(N3CCOCC3)c(F)c2)C(=O)O1 [Linezolid] | > 200 µM |  | 6.2 ± 1.6 µM | 
5 | CC[C@H]1OC(=O)[C@H](C)[C@@H](O[C@H]2C[C@@](C)(OC)[C@@H](O)[C@H](C)O2)[C@H](C)[C@@H](O[C@@H]2O[C@H](C)C[C@H](N(C)C)[C@H]2O)[C@](C)(O)C[C@@H](C)C(=O)[C@H](C)[C@@H](O)[C@]1(C)O [ERY] |  | > 32 µg/mL |  | 
6 | CC(=O)NC[C@H]1CN(c2ccc(N3CCOCC3)c(F)c2)C(=O)O1 [LZD] |  | 8 µg/mL (≈ 23.7 µM) |  | 
7 | Eis2 (Mycobacteroides abscessus ATCC 19977) |  |  |  | Km [4]: 232.6 ± 26 µM; Vmax [4]: 6 µM/min; kcat [4]: 4.7 ± 0.5 s⁻¹; kcat/Km [4]: 20000 ± 320 M⁻¹ s⁻¹
8 | CC(=O)N[C@H](CF)[C@H](O)c1ccc(S(C)(=O)=O)cc1 [FF-ac, florfenicol acetyl] | > 200 µM |  | 4.7 ± 1.7 µM | 
9 | O=C1CN(/N=C/c2ccc([N+](=O)[O-])o2)C(=O)N1 [Nitrofurantoin, nitrofurantoin] | 6.8 ± 0.3 µM |  |  | 
10 | CS(=O)(=O)c1ccc([C@@H](O)[C@@H](CO)NC(=O)C(Cl)Cl)cc1 [Thiamphenicol] | > 200 µM |  | 1.4 ± 0.7 µM | 
11 | N[C@H](CO)[C@H](O)c1ccc([N+](=O)[O-])cc1 [CAM-NH2, chloramphenicol amine] | > 200 µM |  | > 100 µM | 
12 | CS(=O)(=O)c1ccc([C@@H](O)[C@@H](CF)NC(=O)C(Cl)Cl)cc1 [Florfenicol] | > 200 µM |  | 1.2 ± 0.2 µM | 
13 | CC[C@H]1OC(=O)[C@H](C)[C@@H](O[C@H]2C[C@@](C)(OC)[C@@H](O)[C@H](C)O2)[C@H](C)[C@@H](O[C@@H]2O[C@H](C)C[C@H](N(C)C)[C@H]2O)[C@](C)(O)C[C@@H](C)CN(C)[C@H](C)[C@@H](O)[C@]1(C)O [AZITH] |  | > 32 µg/mL |  | 
14 | CS(=O)(=O)c1ccc([C@@H](O)[C@H](N)CF)cc1 [FF-NH2, florfenicol amine] | > 200 µM | 62.5 to 125 µg/mL (≈ 253 to 505 µM) | > 100 µM | Michaelis-Menten acetylation kinetics with purified Eis2, DTNB free-thiol assay [5]: kcat/KM 6.7 × 10^3 ± 5.1 × 10^2
15 | O=C(N[C@H](CO)[C@H](O)c1ccc([N+](=O)[O-])cc1)C(Cl)Cl [Chloramphenicol] | > 200 µM |  | 5.5 ± 2.5 µM | 
16 | NCC[C@H](O)C(=O)N[C@@H]1C[C@H](N)[C@@H](O[C@H]2O[C@H](CN)[C@@H](O)[C@H](O)[C@H]2O)[C@H](O)[C@H]1O[C@H]1O[C@H](CO)[C@@H](O)[C@H](N)[C@H]1O [AMK, amikacin] |  | 4 to 8 µg/mL (≈ 6.83 to 13.7 µM) |  | Michaelis-Menten acetylation kinetics with purified Eis2, DTNB free-thiol assay [6]: the aminoglycoside controls AMK and hygromycin B were also shown as substrates of Eis2
17 | CN[C@@H]1[C@H](O)[C@H](NC)[C@H]2O[C@@]3(O)C(=O)C[C@@H](C)O[C@H]3O[C@@H]2[C@H]1O [SPC] |  | 512 µg/mL (≈ 1540 µM) |  | 
